# Laboratory results as given in patent US7135279B2 (priority 1992, dated 2006).
# How the values were obtained:
# [1] = control of morning sickness during pregnancy; cited from earlier work
# [2] = test system: D-[Aba^67.95 (CO-S)^51–52]2 HIV-1 PR; test: Fluorogenic assay of inhibitors against the D-ligation analog; format: biochemical; conditions: corresponding chiral substrate, 5×1C50 concentration of inhibitor
# Experimental: (§1) The D- and L-enzymes were separately assayed by the fluorogenic assay method using the corresponding chiral substrate, in the presence of 5×1C50 concentration of inhibitor. The fluorogenic assays were performed with 15 ul aliquots (corresponding to […] protein) of each enzyme enantiomer in 100 millimolar MES buffer pH 6.5 added to a solution of […] D- or L-fluorogenic substrate in the MES buffer. The substrate sequence was 2-aminobenzoyl-Thr-Ile-Nle-Phe(p-NO2)-Gln-Arg amide (SEQ ID NO 2): it was synthesized with either D- or L-amino acid derivatives to provide the appropriate enantiomeric forms. The inhibitor Evans Blue is a non-peptide, achiral mixed competitive-uncompetitive inhibitor of the HIV-1 PR enzyme.
# [3] = biological target: T1, L-[Aba^67.95 (CO-S)^51–52]2 HIV-1 PR (Human immunodeficiency virus type 1 group M subtype B, UniProt P03369, C557A/C585A); test: Fluorogenic assay of inhibitors against the L-ligation analog; format: biochemical; conditions: corresponding chiral substrate, 5×1C50 concentration of inhibitor
# T1 construct: to form the ligated 99-residue D- and L-[(NHCH2COSCH2 CO)^51-52]; HIV-1 PR products; made in house; host or cells: total chemical synthesis: solid-phase segments 1-51 and 53-99 joined by chemical ligation
# Experimental: as §1
Compound,sedative effect [1],inhibition of D-[Aba^67.95 (CO-S)^51–52]2 HIV-1 PR [2],inhibition of L-[Aba^67.95 (CO-S)^51–52]2 HIV-1 PR [3]
"O=C1CC[C@@H](N2C(=O)c3ccccc3C2=O)C(=O)N1 (single isomer, unassigned) [D-enantiomer of thalidomide]",safe and effective sedative,–,–
Ac-Thr-Ile-Nle-psi[CH2NH]-Nle-Gln-Arg.amide [D-MVT101],–,inhibits,no effect
Ac-Thr-Ile-Nle-psi[CH2NH]-Nle-Gln-Arg.amide [L-MVT101],–,no effect,inhibits
